Data set [1] concerns the target T1, human peptide transporter PepT1 (Homo sapiens, UniProt P46059).
T1 construct: expressed in transfected cells
T1 sequence (P46059 1-708): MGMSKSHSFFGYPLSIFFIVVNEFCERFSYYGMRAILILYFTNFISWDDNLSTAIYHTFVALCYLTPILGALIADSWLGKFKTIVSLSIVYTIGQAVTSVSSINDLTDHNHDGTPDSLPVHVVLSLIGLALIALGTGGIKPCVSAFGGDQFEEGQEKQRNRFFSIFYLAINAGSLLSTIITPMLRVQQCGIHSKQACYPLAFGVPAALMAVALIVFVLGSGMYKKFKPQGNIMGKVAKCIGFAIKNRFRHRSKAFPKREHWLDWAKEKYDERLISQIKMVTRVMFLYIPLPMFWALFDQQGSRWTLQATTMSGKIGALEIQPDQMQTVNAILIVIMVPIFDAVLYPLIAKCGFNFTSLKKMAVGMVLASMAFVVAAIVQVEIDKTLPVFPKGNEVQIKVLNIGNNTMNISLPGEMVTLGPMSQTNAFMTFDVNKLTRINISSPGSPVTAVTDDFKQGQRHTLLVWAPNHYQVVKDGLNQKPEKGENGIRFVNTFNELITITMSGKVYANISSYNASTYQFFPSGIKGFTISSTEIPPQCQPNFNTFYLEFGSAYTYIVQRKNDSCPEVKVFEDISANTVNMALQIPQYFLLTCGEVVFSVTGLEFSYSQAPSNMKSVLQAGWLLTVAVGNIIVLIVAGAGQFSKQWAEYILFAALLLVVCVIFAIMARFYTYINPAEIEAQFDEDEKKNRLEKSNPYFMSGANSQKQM
In words: Electrophysiological transport analysis, hPEPT1 expressed in oocytes. Format: cell-based.

Data set [2] concerns the target T1, human peptide transporter PepT1. In words: Affinity to PepT1 by displacement of radioactively labeled D-Phe-Ala. The note with it: read-out: Binding constant, mM, to PepT1, relative to D-Phe-Ala.
Data set [3] can be described thus: Blood glucose after oral glucose stimulation and oral administration (glucose tolerance). In kind it is in vivo. The note with it: Wistar rats; within 100 minutes of p.o. glucose stimulation; p.o. dose 2.5 um active substance/300 g of animal; control = 100.
Data set [4] has as its target T2, human blood-DP IV (Homo sapiens, UniProt P27487).
T2 construct: from tissue; host or cells: human whole blood
Description: Inhibition of DP IV in human whole blood by release of Ile-Thia from prodrugs. The conditions noted are these: same concentration of prodrug, compared with Pro-Ile-Thia and Gly-Pro-Ile-Thia. An excerpt: Release of the masked DP IV-inhibitor in the blood can be carried out, in the case of the examples selected, by DP IV itself (Pro-Pro-Ile-Thia=PPIThia, Gly-Pro-Ile-Thia=GPIThia) or by aminopeptidases (pGlu-Ile-Thia=pEIThia, Pro-Ile-Thia=PIThia) (FIG. 1).

As a reminder, the melting point is the temperature, or range, at which the solid turns liquid.

Counter-ions that a name gives are not always drawn. Residues, ends and D or L forms follow the SMILES beside them.

T2 sequence (P27487 whole entry): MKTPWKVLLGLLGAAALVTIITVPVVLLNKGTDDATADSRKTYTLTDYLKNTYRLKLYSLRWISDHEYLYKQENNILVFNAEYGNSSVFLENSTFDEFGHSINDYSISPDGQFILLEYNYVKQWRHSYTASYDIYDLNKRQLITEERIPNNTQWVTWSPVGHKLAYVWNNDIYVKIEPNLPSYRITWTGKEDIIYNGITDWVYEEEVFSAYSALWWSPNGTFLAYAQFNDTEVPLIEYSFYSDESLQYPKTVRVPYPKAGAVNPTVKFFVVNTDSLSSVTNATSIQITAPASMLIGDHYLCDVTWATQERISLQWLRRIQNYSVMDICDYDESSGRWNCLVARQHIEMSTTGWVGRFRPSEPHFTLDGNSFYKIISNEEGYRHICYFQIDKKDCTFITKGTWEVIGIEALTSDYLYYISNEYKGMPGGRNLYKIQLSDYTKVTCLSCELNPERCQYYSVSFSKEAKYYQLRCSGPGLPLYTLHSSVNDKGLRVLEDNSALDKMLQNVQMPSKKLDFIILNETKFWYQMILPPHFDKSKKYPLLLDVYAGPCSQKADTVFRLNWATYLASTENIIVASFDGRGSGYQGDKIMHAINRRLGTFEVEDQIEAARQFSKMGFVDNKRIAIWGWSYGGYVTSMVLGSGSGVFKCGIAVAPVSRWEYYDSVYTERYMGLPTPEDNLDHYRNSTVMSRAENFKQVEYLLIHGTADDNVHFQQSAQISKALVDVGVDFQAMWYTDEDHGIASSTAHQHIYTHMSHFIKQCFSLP

Regarding `CC[C@H](C)[C@H](N)C(=O)N1CCC[C@H]1C(=O)N[C@H](C(=O)N1CCSC1)[C@@H](C)CC` (as salt: HCl) [Ile-Pro-Ile-Thia], the melting point was 98 to 107 °C.
Consider `NC(=O)CC(N)C(=O)N1CCCC1` (stereo not shown) [Asn-Pyr], for which the “Electrophys. transport analysis (hPEPT1 expr. in oocytes), flux % based on the Gly-Gln control (100%)” value (“Electrophys. transport analysis … (100%)” below) in data set [1] amounted to 30%. For the same molecule, in data set [2], the Ki was 3.01 mM.
For the molecule `NC(=O)CC(N)C(=O)N1CCSC1` (stereo not shown) [Asn-Thia], the “Electrophys. transport analysis … (100%)” value in data set [1] was found to be 83%. For the same molecule, in data set [2], the Ki came out at 0.5 mM.
`NC(Cc1c[nH]cn1)C(=O)N1CCCC1` (stereo not shown) [His-Pyr]: the “Electrophys. transport analysis … (100%)” value in data set [1] is 7%. The Ki in data set [2] worked out at 5.34 mM.
For `CC[C@H](C)[C@H](N)C(=O)N1CCC[C@H]1C(=O)N[C@H](C(=O)N1CCSC1)[C@@H](C)CC` [Ile-Pro-Ile-Thia], in that order: 44% and 0.61 mM.
As for `CCC(C)C(N)C(=O)N1CCCC1` (stereo not shown) [Ile-Pyr], the “Electrophys. transport analysis … (100%)” value in data set [1] turned out to be 14%. Besides, in data set [2], the Ki worked out at 2.66 mM.
Take `CCC(C)C(N)C(=O)N1CCSC1` (stereo not shown) [Ile-Thia, isoleucyl thiazolidide]: the “Electrophys. transport analysis … (100%)” value in data set [1] was determined as 25%. The Ki in data set [2] is 0.98 mM. Also, the “% glucose level” value in data set [3] is recorded as 74.4%.
As to `NCCCCC(N)C(=O)NC(Cc1ccccc1)C(=O)N1CCCC1C(=O)O` (stereo not drawn) [Lys-Phe-Pro] (H-Lys-Phe-Pro-OH; configuration not given here), the “Electrophys. transport analysis … (100%)” value in data set [1] is given as 10%. Besides, the Ki in data set [2] stood at 0.19 mM.
`NCCCCC(N)C(=O)NC(Cc1ccccc1)C(=O)O` (stereo not shown) [Lys-phe]: in data set [1], the “Electrophys. transport analysis … (100%)” value is reported as 95%. Besides, the Ki in data set [2] was found to be 0.08 mM.
As to H-Gly-Pro-Ile-Thia/HC1, the “% glucose level” value in data set [3] turned out to be 57.1%.
H-Pro-Ile-Thia/HC1: the “% glucose level” value in data set [3] is 56.1%.
Take Pro-Pro-Ile-Thia: the “Release of the DP IV-inhibitor isoleucyl thiazolidide from the prodrug in the blood (time course of DP IV inhibition)” value in data set [4] was “more marked delay in the release of active substance”.
On to pGlu-Ile-Thia, for which the “Release of the DP IV-inhibitor isoleucyl thiazolidide from the prodrug in the blood (time course of DP IV inhibition)” value in data set [4] is listed as “more marked delay in the release of active substance”.
